Here are results for 1 compound from patent US20190175577A1, “METHOD FOR TREATING AMYOTROPHIC LATERAL SCLEROSIS” (UNIVERSITY OF MIAMI, priority 2017, published 2019).

The subject of series [1] is ALS caused by SOD1 mutations. Nature of the series: randomized, double-blind placebo controlled phase II trial: efficacy (survival, ALSFRS-R, CAFS). The format is in vivo, human. The conditions noted are these: for participants alive (and without PAV or tracheostomy): at 12 months. As to the method:
(§1) Provided herein are the details of a completed, randomized, double-blind placebo controlled phase II trial. The trial was conducted at two sites and three academic medical centers in the United States. An independent medical monitor completed regular review of laboratory reports and adverse events (AEs), as well as real-time review of serious adverse events (SAEs). Eligibility criteria (FIG. 1) aimed to enroll, from across the U.S. and Canada, a population relatively early in the course of ALS caused by SOD1 mutations associated with rapidly progressive disease.
Randomization (1:1 to Arimoclomol or matching placebo) was stratified by Riluzole use and in block size of two within each stratum, and implemented using a central web-based electronic data capture (EDC) system managed by the Neurological Clinical Research Institute Data Management Center at MGH. The randomization schedule, generated by a study statistician, was provided to each research pharmacy. At randomization, the EDC assigned a subject identification number, which the site-coordinator submitted to the research pharmacy for drug dispensing. Encapsulated placebo was matched in color and appearance to active drug. Except for the research pharmacists, pharmacy monitors, and study statisticians, all other personnel and study participants were blinded to treatment assignments.
The first participants were randomized and administered 100 mg of Arimoclomol three times daily. After enrollment of the first 16 participants (of whom 8 were on Arimoclomol, including 1 subject subsequently excluded per protocol), the dosage was increased to 200 mg administered three times daily for all active participants (which for the Arimoclomol group included three subjects initially started at 100 mg administered three times daily), and all newly enrolled participants received 200 mg three times a day. All data were analyzed following the intent-to-treat principle.
Assessments were performed in person only at Baseline and Month-2, with remote assessments planned for all other visits. Neurological examination, motor unit number estimation (MUNE), and slow vital capacity (SVC) could only be performed in person. Other assessments, conducted at all visits (in person and remotely), included: vital signs; blood and urine for safety labs; ALSFRS-R (revised ALS Functional Rating Scale), which has been validated for telephone administration; and the forced expiratory volume in 6-seconds (FEV6). Miano et al., Amyotrophic Lateral Sclerosis And Other Motor Neuron Disorders: Official Publication Of The World Federation Of Neurology, Research Group On Motor Neuron Diseases 2004; 5:235-239; Vandevoorde et al., Chest 2005; 127:1560-1564. In addition, AEs, concomitant medications, study drug dose management, use of ventilatory support, and key study events were recorded at all visits.
Operationalization of remote assessments posed logistical challenges that required the introduction of two innovative features: (1) the collection of vital signs and blood/urine for safety labs in participants' homes, this was accomplished using the services of a mobile medical provider; and (2) the use of FEV6 as the principal measure of respiratory function. The key advantage of FEV6 over SVC is that FEV6 may be self-administered by the participant using a low-cost portable device (e.g., Piko-6, nSpireHealth, Inc.). […] Use of the FEV6 allowed for remote assessment of respiratory function, which otherwise would not have been available for collection in this trial. Reproducibility and normative data for FEV6 are established. Hankinson et al., Chest 2003; 124:1805-1811.
For efficacy, the principal outcome measure was PAV- and tracheostomy-free survival time, calculated from baseline to PAV (defined as first of seven consecutive days when PAV was used >22 hours/day) or tracheostomy, date of death (if no PAV or tracheostomy), or date of last available follow-up/study contact (if still PAV- and tracheostomy-free by then). […]

The subject of series [2] is ALS caused by SOD1 mutations. Details: species or system human. The conditions noted are these: in vivo. As for the experimental part: as §1
Randomization (1:1 to Arimoclomol or matching placebo) was stratified by Riluzole use and in block size of two within each stratum, and implemented using a central web-based electronic data capture (EDC) system managed by the Neurological Clinical Research Institute Data Management Center at MGH. The randomization schedule, generated by a study statistician, was provided to each research pharmacy. At randomization, the EDC assigned a subject identification number, which the site-coordinator submitted to the research pharmacy for drug dispensing. […]
The first participants were randomized and administered 100 mg of Arimoclomol three times daily. […] All data were analyzed following the intent-to-treat principle.
Assessments were performed in person only at Baseline and Month-2, with remote assessments planned for all other visits. […] In addition, AEs, concomitant medications, study drug dose management, use of ventilatory support, and key study events were recorded at all visits.
The primary endpoint of safety and tolerability was based on the frequency of AEs, abnormal vital signs, and abnormal laboratory studies above or below pre-defined alert levels. […] In summarizing AEs: (a) if a participant experienced multiple occurrences of the same event, only the occurrence with the worst severity (or highest degree of relatedness to study drug) was counted; and (b) CTCAE events were further classified into subgroups (“AE type”), e.g., pneumonia and bronchitis were both classified as upper/lower respiratory infection.

As for `[O-][n+]1cccc(/C(Cl)=N/OC[C@H](O)CN2CCCCC2)c1` [Arimoclomol], the “CAFS potential treatment benefit vs placebo” value in series [1] (95% CI: −2.50 to 11.64) is reported as 4.57 points. For the same compound, the “ALSFRS-R rate of decline, average (±SE)” value in series [1] (A4V subgroup) turned out to be 2.6±0.5 points/month; in series [1] (all participants, mixed model), 2.5±0.4 points/month. For the same compound, the “treatment difference in ALSFRS-R rate of decline vs placebo” value in series [1] (A4V subgroup, 95% CI: −0.28 to 2.24, p=0.12) is given as 0.98 points/month; in series [1] (all participants, 95% CI: −0.63 to 1.63, p=0.37) it was 0.5 points/month. For the same compound, the “win ratio, participant-to-participant comparison between the two groups” value in series [1] (CAFS) amounted to 1.6924. Also, in series [1] (Cox proportional hazards model, Arimoclomol compared to control, 95% CI: 0.29-1.48, p=0.33), the “unadjusted hazard ratio (HR), PAV- and tracheostomy-free survival” value stood at 0.67. Also, the “hazard ratio (HR) adjusted for baseline ALSFRS-R and Riluzole” value in series [1] (Cox proportional hazards model, 95% CI: 0.32-1.80, p=0.55) is recorded as 0.77. Further, the “treatment difference in ALSFRS-R rate of decline, Vonesh model” value in series [1] (Vonesh shared parameter model, 95% CI: −0.33 to 1.86, p=0.16) was 0.77±0.54 points/month. Also, the “participants alive (and without PAV or tracheostomy)” value amounted to 34% in series [1] (all participants, Kaplan-Meier) and 29% in series [1] (subgroup of A4V participants). The “direct effect of treatment on survival, Vonesh model” value in series [1] (p=0.62) is “not significant”. For the same compound, the “CAFS rank score, average (±SE)” value in series [1] (rank scores range from 1 (worst) to 36 (best)) was determined as 20.9±2.5. The “ALSFRS-R difference over a one-year period” value in series [1] (translated from treatment difference of 0.5-1.0 points/month, not statistically significant) is given as 6-12 points. In series [2], the “discontinuation because of adverse event” value is “A single participant stopped Arimoclomol because of a skin rash”. For the same compound, in series [2], the “relatedness of SAEs to study drug” value is reported as “none of which were considered related to study drug”. Besides, the “serious adverse events (SAEs) reported” value in series [2] was found to be 7.
